The results in this text go back to patent US10975077B2 (Novira Therapeutics, Inc., priority 2016, dated 2021).

The structures appear in SMILES notation.

For the first experiment, the system named is HBV (encapsidated HBV DNA, HepG2.2.15 cells). The experiment is described as follows: HBV replication inhibition assay, BDNA assay in HepG2.2.15 cells. It counts as cell-based. The settings on record: Activity in BDNA-assay. In short, it runs like this: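 HepG2.2.15 cells (stably integrated HBV, 40,000/well) treated with serially diluted compound in 0.5% DMSO for 6 days, medium and compound refreshed at day 3. DNase-treated supernatant lysed with proteinase K; encapsidated HBV DNA quantified by bDNA, percent inhibition versus DMSO controls, EC50 by nonlinear fit.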
With `C[C@@H]1Cc2nn3c(c2CN1C(=O)Nc1cc(C(F)(F)F)c(F)cc1F)C(=O)N(C)CC(CO)C3` (single isomer, unassigned) [Compound 082_D2, (3R,8R*)—N-(2,4-difluoro-5-(trifluoromethyl)phenyl)-8-(hydroxymethyl)-3,10-dimethyl-11-oxo-1,3,4,7,8,9,10,11-octahydro-2H-pyrido[4′,3′:3,4]pyrazolo[1,5-a][1,4]diazepine-2-carboxamide], the EC50 lay in the range of 100 to 500 nM.

For the compound `CCC(O)C1CN(C)C(=O)c2c3c(nn2C1)CC(C)N(C(=O)Nc1ccc(F)c(C#N)c1)C3` [Compound 108_D1, (3R,8S*)—N-(3-cyano-4-fluorophenyl)-8-((R)-1-hydroxypropyl)-3,10-dimethyl-11-oxo-1,3,4,7,8,9,10,11-octahydro-2H-pyrido[4′,3′:3,4]pyrazolo[1,5-a][1,4]diazepine-2-carboxamide], the EC50 is 1 to 100 nM.

Take `C=CC(O)C1CN(C)C(=O)c2c3c(nn2C1)CC(C)N(C(=O)Nc1ccc(F)c(Br)c1)C3` [Compound 124_D2, (3R,8S*)—N-(3-bromo-4-fluorophenyl)-8-((S*)-1-hydroxyallyl)-3,10-dimethyl-11-oxo-1,3,4,7,8,9,10,11-octahydro-2H-pyrido[4′,3′:3,4]pyrazolo[1,5-a][1,4]diazepine-2-carboxamide]: the EC50 was 1 to 100 nM.

`CCC(O)C1CN(C)C(=O)c2c3c(nn2C1)CCN(C(=O)Nc1ccc(F)c(C(F)(F)F)c1)C3` (single isomer, unassigned) [Compound 099_E3, (S*)—N-(4-fluoro-3-(trifluoromethyl)phenyl)-8-((S*)-1-hydroxypropyl)-10-methyl-11-oxo-1,3,4,7,8,9,10,11-octahydro-2H-pyrido[4′,3′:3,4]pyrazolo[1,5-a][1,4]diazepine-2-carboxamide]: the EC50 was in the range of 1 to 100 nM.

Take `CN1CC([S+](C)[O-])Cn2nc3c(c2C1=O)CN(C(=O)Nc1ccc(F)c(Cl)c1)CC3` (single isomer, unassigned) [Compound 026B, N-(3-chloro-4-fluoro-phenyl)-10-methyl-8-methylsulfinyl-11-oxo-1,3,4,7,8,9-hexahydropyrido[2,3]pyrazolo[2,4-b][1,4]diazepine-2-carboxamide]: the EC50 was in the range of 500 to 1000 nM.

Turning to `C[C@@H]1Cc2nn3c(c2CN1C(=O)Nc1ccc(F)c(C(F)(F)F)c1F)C(=O)N(C)CC(CO)C3` (single isomer, unassigned) [Compound 083_D2, (3R,8R*)—N-(2,4-difluoro-3-(trifluoromethyl)phenyl)-8-(hydroxymethyl)-3,10-dimethyl-11-oxo-1,3,4,7,8,9,10,11-octahydro-2H-pyrido[4′,3′:3,4]pyrazolo[1,5-a][1,4] diazepine-2-carboxamide], the EC50 lay within 1 to 100 nM.

Regarding `CCC(O)C1CN(C)C(=O)c2c3c(nn2C1)CCN(C(=O)Nc1ccc(F)c(C(F)(F)F)c1)C3` (single isomer, unassigned) [Compound 099_E1, (R*)—N-(4-fluoro-3-(trifluoromethyl)phenyl)-8-((S*)-1-hydroxypropyl)-10-methyl-11-oxo-1,3,4,7,8,9,10,11-octahydro-2H-pyrido[4′,3′:3,4]pyrazolo[1,5-a][1,4]diazepine-2-carboxamide], the concentration giving a half-maximal response (EC50) was in the range of 1 to 100 nM.

The experiment is the same for the next values; noted with them: Hepatitis B virus, HepG2.2.15, Activity in BDNA-assay.
With `C[C@@H]1Cc2nn3c(c2CN1C(=O)Nc1ccc(F)c(C#N)c1)C(=O)N(C)CC1(C3)CC(F)(F)C1` [Compound 143, (R)-N-(3-Cyano-4-fluorophenyl)-3,3-difluoro-3′,10′-dimethyl-11′-oxo-1′,3′,4′,9′,10′,11′-hexahydro-2′H,7′H-spiro[cyclobutane-1,8′-pyrido[4′,3′:3,4]pyrazolo[1,5-a][1,4]diazepine]-2′-carboxamide], the EC50 lay within 1 to 100 nM.

As to `COC(=O)CC1CN(C)C(=O)c2c3c(nn2C1)CCN(C(=O)Nc1ccc(F)c(Cl)c1)C3` (stereo not drawn) [Compound 028, methyl 2-(2-((3-chloro-4-fluorophenyl)carbamoyl)-10-methyl-11-oxo-1,3,4,7,8,9,10,11-octahydro-2H-pyrido[4′,3′:3,4]pyrazolo[1,5-a][1,4]1diazepin-8-yl)acetate], the EC50 was in the range of 100 to 500 nM.

Regarding `CCOC(=O)C1CN(C)C(=O)c2c3c(nn2C1)CCN(C(=O)Nc1ccc(F)c(Cl)c1)C3` (stereo not drawn) [Compound 030, ethyl 2-((3-chloro-4-fluorophenyl)carbamoyl)-10-methyl-11-oxo-2,3,4,7,8,9,10,11-octahydro-1H-pyrido[4′,3′:3,4]pyrazolo[1,5-a][1,4]diazepine-8-carboxylate], the EC50 was more than 1000 nM.

With `CCC(O)C1CN(C)C(=O)c2c3c(nn2C1)CCN(C(=O)Nc1cc(F)c(F)c(F)c1)C3` (single isomer, unassigned) [Compound 104_E1, (R*)-8-((S*)-1-hydroxypropyl)-10-methyl-11-oxo-N-(3,4,5-trifluorophenyl)-1,3,4,7,8,9,10,11-octahydro-2H-pyrido[4′,3′:3,4]pyrazolo[1,5-a][1,4] diazepine-2-carboxamide], the EC50 is 1 to 100 nM.

With `CN1C(=O)c2c3c(nn2CC1CO)CCN(C(=O)Nc1ccc(F)c(Cl)c1)C3` (stereo not drawn) [Compound 044, N-(3-chloro-4-fluorophenyl)-8-(hydroxymethyl)-9-methyl-10-oxo-3,4,7,8,9,10-hexahydropyrido[4′,3′:3,4]pyrazolo[1,5-a]pyrazine-2 (1H)-carboxamide], the EC50 was in the range of 1 to 100 nM.

On to `CN1CC(O)Cn2nc3c(c2C1=O)CN(C(=O)Nc1ccc(F)c(Cl)c1)CC3` (stereo not drawn) [Compound 004, N-(3-chloro-4-fluorophenyl)-8-hydroxy-10-methyl-11-oxo-1,3,4,7,8,9,10,11-octahydro-2H-pyrido[4′,3′:3,4]pyrazolo[1,5-a][1,4]diazepine-2-carboxamide], for which the concentration giving a half-maximal response (EC50) fell in the range of 1 to 100 nM.

As for `CN1CC(C(C)(C)O)Cn2nc3c(c2C1=O)CN(C(=O)Nc1ccc(F)c(Cl)c1)CC3` (stereo not drawn) [Compound 033, N-(3-chloro-4-fluorophenyl)-8-(2-hydroxypropan-2-yl)-10-methyl-11-oxo-3,4,8,9,10,11-hexahydro-1H-pyrido[4′,3′:3,4]pyrazolo[1,5-a][1,4]diazepine-2 (7H)-carboxamide], the EC50 is 1 to 100 nM.

`C[C@@H]1Cc2nn3c(c2CN1C(=O)Nc1ccc(F)c(C(F)(F)F)c1)C(=O)N(C)CC(F)C3` (single isomer, unassigned) [Compound 138, (3R,8R*)-8-fluoro-N-(4-fluoro-3-(trifluoromethyl)phenyl)-3,10-dimethyl-11-oxo-1,3,4,7,8,9,10,11-octahydro-2H-pyrido[4′,3′:3,4]pyrazolo[1,5-a][1,4]diazepine-2-carboxamide]: the EC50 lay in the range of 1 to 100 nM.

`CN1CC(C(O)CC2CC2)Cn2nc3c(c2C1=O)CN(C(=O)Nc1ccc(F)c(Cl)c1)CC3` (stereo not drawn) [Compound 047, N-(3-chloro-4-fluoro-phenyl)-8-(2-cyclopropyl-1-hydroxy-ethyl)-10-methyl-1-oxo-1,3,4,7,8,9-hexahydropyrido[2,3]pyrazolo[2,4-b][1,4]diazepine-2-carboxamide]: the EC50 lay in the range of 1 to 100 nM.

For `CN1CC(CN)Cn2nc3c(c2C1=O)CN(C(=O)Nc1ccc(F)c(C#N)c1)CC3` (stereo not drawn) [Compound 095, 8-(aminomethyl)-N-(3-cyano-4-fluorophenyl)-10-methyl-11-oxo-1,3,4,7,8,9,10,11-octahydro-2H-pyrido[4′,3′:3,4]pyrazolo[1,5-a][1,4]diazepine-2-carboxamide], the EC50 is 1 to 100 nM.

On to `C[C@@H]1Cc2nn3c(c2CN1C(=O)Nc1ccc(F)c(C#N)c1)C(=O)N(C)[C@H](COCC(F)F)C3` [Compound 150, (3R,8S)-N-(3-cyano-4-fluorophenyl)-8-((2,2-difluoroethoxy)methyl)-3,9-dimethyl-10-oxo-3,4,7,8,9,10-hexahydropyrido[4′,3′:3,4]pyrazolo[1,5-a]pyrazine-2(1H)-carboxamide], for which the EC50 lay in the range of 1 to 100 nM.

For `CN1CC(CN2CCC(F)(F)C2)Cn2nc3c(c2C1=O)CN(C(=O)Nc1ccc(F)c(C(F)(F)F)c1)CC3` (stereo not drawn) [Compound 068, 8-((3,3-difluoropyrrolidin-1-yl)methyl)-N-(4-fluoro-3-(trifluoromethyl)phenyl)-10-methyl-11-oxo-1,3,4,7,8,9,10,11-octahydro-2H-pyrido[4′,3′:3,4]pyrazolo[1,5-a][1,4] diazepine-2-carboxamide], the EC50 is 100 to 500 nM.

For `CN1CC(N2CC(F)(F)C2)Cn2nc3c(c2C1=O)CN(C(=O)Nc1ccc(F)c(Cl)c1)CC3` (stereo not drawn) [Compound 022, N-(3-chloro-4-fluorophenyl)-8-(3,3-difluoroazetidin-1-yl)-10-methyl-11-oxo-1,3,4,7,8,9,10,11-octahydro-2H-pyrido[4′,3′:3,4]pyrazolo[1,5-a][1,4]diazepine-2-carboxamide], the EC50 is 100 to 500 nM.

As for `CN1CCCn2nc3c(c2C1)CN(C(=O)Nc1ccc(F)c(Cl)c1)CC3` [Compound 046, N-(3-chloro-4-fluorophenyl)-10-methyl-1,3,4,7,8,9,10,11-octahydro-2H-pyrido[4′,3′:3,4]pyrazolo[1,5-a][1,4]diazepine-2-carboxamide], the EC50 is more than 1000 nM.

As to `C[C@@H]1Cc2nn3c(c2CN1C(=O)Nc1ccc(F)c(Cl)c1F)C(=O)N(C)CC(CO)C3` (single isomer, unassigned) [Compound 089_D1, (3R,8S*)—N-(3-chloro-2,4-difluorophenyl)-8-(hydroxymethyl)-3,10-dimethyl-11-oxo-1,3,4,7,8,9,10,11-octahydro-2H-pyrido[4′,3′:3,4]pyrazolo[1,5-a][1,4]diazepine-2-carboxamide], the EC50 was 1 to 100 nM.

For the compound `C[C@@H]1Cc2nn3c(c2CN1C(=O)Nc1cc(Cl)c(F)cc1Br)C(=O)N(CC(F)F)CCC3` [Compound 071, (R)—N-(2-bromo-5-chloro-4-fluorophenyl)-10-(2,2-difluoroethyl)-3-methyl-11-oxo-1,3,4,7,8,9,10,11-octahydro-2H-pyrido[4′,3′:3,4]pyrazolo[1,5-a][1,4]diazepine-2-carboxamide], the EC50 was 1 to 100 nM.

With `CN1C(=O)c2c3c(nn2CCC1C(=O)O)CCN(C(=O)Nc1ccc(F)c(Cl)c1)C3` (stereo not drawn) [Compound 058, 2-((3-chloro-4-fluorophenyl)carbamoyl)-10-methyl-11-oxo-1,3,4,7,8,9,10,11-octahydro-2H-pyrido[4′,3′:3,4]pyrazolo[1,5-a][1,4]diazepine-9-carboxylic acid], the half-maximal effective concentration (EC50) is more than 1000 nM.
